Read-outs that look alike come from different tables or passages of the source.
Assays:
[1] = Free energy of hydration by COSMO-RS
Method in brief: (§1)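 Hydration energies come from continuum solvent models. Those for COSMO were computed with MolPro. SMD and PCM results were received, and the SMD, PCM and COSMO-RS sets each cover just the molecules in common with the QM-parameterized force-field calculations.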

[2] = experimental, cited from earlier work
[3] = CHEX/H2O partition coefficient, experimental, cited from earlier work; for Exp (log D): Table 3; for logD Exp (logD): Table 4
[4] = Free energy of hydration predicted with the QM-parameterized force field model (ARROW FF), classical MD and PIMD simulation in a water box; settings: for Arrow error: Table 5, error of Arrow PIMD8 hydration free energy vs experiment; for Arrow PIMD8 Error: absolute error vs Exp (hydration)
Method in brief: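 Classical and PIMD runs (MTS integrator, MTTK barostat at 1 atm) followed minimization and 50 ps equilibration, with 1 ns NPT production per window. Fifteen unequally spaced lambda windows removed all solute-solvent interactions simultaneously in a 32 Å water box. Hydration free energy computed by Bennett acceptance ratio and thermodynamic integration.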

[5] = Free energy of hydration predicted by polarizable AMOEBA force field, from literature; settings: Table 5; error of AMOEBA hydration free energy vs experiment
[6] = Free energy of solvation in cyclohexane predicted with the QM-parameterized force field model (ARROW FF), MD and PIMD; settings: Table 4; for CHEX Arrow MD Error: error of MD cyclohexane solvation free energy vs experiment; for CHEX Arrow PIMD4 Error: error of PIMD4 cyclohexane solvation free energy vs experiment
Method in brief: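 Solute–cyclohexane interactions decoupled over 15 λ points with soft-core scaling, in MD and path-integral simulations under NPT at 1 atm using PME electrostatics and 9 Å cutoffs. Each window had 50 ps equilibration and 1 ns production; free energies from BAR and TI.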

[7] = Free energy of hydration by Solvation Model Dielectric (SMD) implicit solvent model; settings: absolute error vs Exp (hydration)
Method in brief: as §1

[8] = CHEX/H2O partition coefficient (log D) predicted with the QM-parameterized force field model (ARROW FF)
Method in brief: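 Cyclohexane/water partition coefficients were predicted by molecular simulation with a QM-parameterized force field, with bonded force constants and equilibrium values fitted to MP2/aug-cc-pVTZ energies. Solutes carried neutral functional groups, and results from four independent groups were averaged.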

[9] = Free energy of hydration by Polarizable Continuum Model (PCM); settings: absolute error vs Exp (hydration)
Method in brief: as §1

[10] = Free energy of hydration by COSMO implicit solvent model (MolPro ver. 2012); settings: absolute error vs Exp (hydration)
Method in brief: as §1

[11] = Table 5; free energy of hydration, AMOEBA prediction taken from literature; cited from earlier work
[12] = Table 5; free energy of hydration, GAFF prediction taken from literature; cited from earlier work
[13] = Free energy of hydration predicted by General Amber Force Field (GAFF), from literature; settings: Table 5; error of GAFF hydration free energy vs experiment
[14] = implicit solvent model, values received; cited from earlier work
[15] = experimental, cited from earlier work; for Exp (hydration): Table 5
[16] = implicit solvent model, values received; cited from earlier work; remark: listed apart in the source
[17] = Table 3, free energy of solvation in cyclohexane
[18] = Table 4, solvation free energy in cyclohexane
[19] = Table 3, absolute error of MD hydration free energy vs experiment
[20] = Table 3, absolute error of PIMD8 hydration free energy vs experiment
[21] = Table 4, error of MD hydration free energy vs experiment
[22] = Table 4, error of PIMD8 hydration free energy vs experiment
[23] = Table 3, free energy of hydration
[24] = Table 4, neutral amino-acid analogues

Row | SMILES | CHEX Exp (solvation) [2, 17] [kcal/mol] | CHEX Exp (solvation) [2, 18] [kcal/mol] | logD Exp (logD) [3] | water Arrow MD Error [4, 19] [kcal/mol] | water Arrow PIMD8 Error [4, 20] [kcal/mol] | water Arrow MD Error [4, 21] [kcal/mol] | water Arrow PIMD8 Error [4, 22] [kcal/mol] | Arrow error [4] [kcal/mol] | Arrow PIMD8 Error [4] [kcal/mol] | AMOEBA error [5] [kcal/mol] | CHEX Arrow MD Error [6] [kcal/mol] | CHEX Arrow PIMD4 Error [6] [kcal/mol] | SMD Error [7] [kcal/mol] | PCM Error [9] [kcal/mol] | COSMO/Molpro Error [10] [kcal/mol] | AMOEBA [11] [kcal/mol] | GAFF [12] [kcal/mol] | GAFF error [13] [kcal/mol] | water Exp (hydration) [15, 23] [kcal/mol] | water Exp (hydration) [15, 24] [kcal/mol] | also measured
1 | CO [Methanol] | -1.29 | -1.29 | −2.80 | 0.28 | 0.35 | 0.28 | 0.35 | 0.33 | 0.35 | 0.32 | 0.42 | 0.24 | 0.91 | 1.91 | 1.37 | -4.79 | -4.37 | 0.74 | – | – | COSMO-RS error [1]: 0.18 kcal/mol; Exp (log D) [3]: −2.80; log D Arrow MD Error [8]: 0.10; log D Arrow PIMD Error [8]: 0.43; logD Arrow MD Error [8]: 0.10; logD Arrow PIMD Error [8]: 0.43
2 | Cc1ccccc1 [Toluene] | -4.90 | -4.90 | – | 0.83 | 0.10 | 0.83 | 0.10 | 0.10 | 0.10 | 0.64 | 0.94 | 0.62 | 0.59 | 0.71 | 2.41 | -1.53 | -0.71 | 0.18 | -0.89 | -0.89 | COSMO-RS error [1]: 0.12 kcal/mol; SMD free energy of hydration [14]: -0.30 kcal/mol; Exp (hydration) ([15]; free energy of hydration): -0.89 kcal/mol; PCM free energy of hydration [16]: -1.60 kcal/mol
3 | CS [MethaneThiol] | – | -2.46 | 0.91 | 0.79 | 0.43 | 0.79 | – | 0.43 | 0.43 | 0.98 | 0.39 | 0.30 | 0.42 | 0.88 | 2.71 | -0.26 | -0.83 | 0.41 | -1.219 | -1.219 | SMD free energy of hydration [14]: -0.80 kcal/mol; Exp (hydration) ([15]; free energy of hydration): -1.24 kcal/mol; Exp (hydration) free energy of hydration [15]: -1.22 kcal/mol; logD Arrow MD Error ([8]; Table 4, error of MD logD vs experiment): 0.29; logD Arrow PIMD Error ([8]; Table 4, error of PIMD logD vs experiment): 0.09; PCM free energy of hydration [16]: -2.10 kcal/mol
4 | CCSC [EthylMethylSulfide] | -3.78 | -3.78 | 1.67 | 0.47 | 0.11 | 0.47 | 0.11 | 0.11 | 0.11 | 0.48 | 0.83 | 0.51 | – | – | 2.70 | -1.98 | 0.34 | 1.84 | -1.5 | -1.5 | Exp (log D) [3]: 1.67; Exp (hydration) ([15]; free energy of hydration): -1.50 kcal/mol; log D Arrow MD Error [8]: 0.27; log D Arrow PIMD Error [8]: 0.29; logD Arrow MD Error [8]: 0.27; logD Arrow PIMD Error [8]: 0.29
